The source of these data is patent US20220249399A1, “COMPOSITION COMPRISING AN ANTI-OXIDANT TO PRESERVE CORNEAL TISSUE” (University of lowa Research Foundation, priority 2019, published 2022).

Test [1] has as its system primary cultures of corneal endothelial cells. The test can be described thus: Seahorse XFe96 mitochondrial respiration of primary cultures of corneal endothelial cells. Format: cell-based, human. The method, then: (§1) Human corneas were obtained by Iowa Lions Eye Bank (ILEB) from nondiabetic donors 60-75 years old and stored in Optisol GS (Bausch+Lomb, Irvine, Calif.) at 4° C. following procurement in accordance with Eye Bank Association of America and ILEB policies and procedures. Endothelial cells were isolated and cultured in Seahorse XFe96 well plates until they reached confluency. Purity of cell cultures were confirmed with anti-zonula occludens 1 (ZO-1) labeling of cellular tight junctions. Once confluent, cells were treated with different concentrations of cyclodextrin-coenzyme Q10 complex in culture (1 μM, 10 μM, or 100 μM) uncomplexed coenzyme Q10 (100 μM), cyclodextrin alone, or diluent control. Mitochondrial respiration was assayed by measuring oxygen consumption using the Seahorse XFe96 Extracellular Flux Analyzer (Agilent Technologies, Santa Clara, Calif.) over 120 minutes (9-minute intervals). Wells were labeled with a nuclear counterstain (DAPI) and nuclei were counted in each well to normalize respirometry data.
Seahorse respiration assays were conducted with MitoQ with doses ranging from 0 to 10 μM. All experiments were performed on corneal endothelial cells in culture and analyzed using the XFe96 Extracellular Flux Analyzer.
as §1, with “MitoQ with doses ranging from 0 to” for “different concentrations of cyclodextrin-coenzyme Q10 complex in culture (1 μM,”, “μM.” for “μM, or 100 μM) uncomplexed coenzyme Q10 (100 μM), cyclodextrin alone, or diluent control.”

The subject of test [2] is immortalized human corneal endothelial cells. Put plainly: Seahorse XFe24 mitochondrial respiration of immortalized human corneal endothelial cells grown in hyperglycemic medium. Conditions: 25 days of growth in 5.5-13.0 mM glucose, n=18, P<0.0001. Type of test: cell-based. How it is done: FIG. 40. Mitochondrial respiration assay using Seahorse XFe24 extracellular flux analyzer of immortalized human corneal endothelial cells following 25 days of growth in 5.5-13.0 mM glucose and treated with 8.3 μM PQQ (n=18). Maximal respiration and spare respiratory capacity are lowered in HCECs (P<0.0001) due to hyperglycemic growing conditions.
FIG. 41. Mitochondrial respiration assay using Seahorse XFe24 extracellular flux analyzer of immortalized human corneal endothelial cells following 25 days of growth in 5.5-13.0 mM glucose and treated with 1.0 mM NAC (n=18). Maximal respiration and spare respiratory capacity are lowered in HCECs (P<0.0001) due to hyperglycemic growing conditions.

Test [3] has as its system human donor corneal endothelial cells. Put plainly: Mitochondrial respiration assay (Seahorse XFe24 extracellular flux analyzer) of donor corneal endothelium after storage in supplemented Optisol GS. Conditions: 1 mM ascorbate-2-phosphate. Format: cell-based. The method, then:
Human corneal tissue pairs were obtained by Iowa Lions Eye Bank (ILEB) from nondiabetic donors 60-75 years old and stored in Optisol GS (Bausch+Lomb, Irvine, Calif.) at 4° C. following procurement in accordance with Eye Bank Association of America and ILEB policies and procedures. For 5 days prior to testing, but within 9 days of procurement, one stored tissue from a corneal pair was treated with 10 μM CoQ10, while the mate tissue was treated with diluent only as a control. Descemet membrane and endothelial cell punches were collected and mounted onto the bottom of a Seahorse assay plate (cells facing upward). Mitochondrial respiration was assayed by measuring oxygen consumption using the Seahorse XFe24 Extracellular Flux Analyzer (Agilent Technologies, Santa Clara, Calif.) over 120 minutes (9-minute intervals). Punches were labeled with a nuclear counterstain (DAPI) and remaining tissues were mounted onto slides and labeled with 488A-Annexin V, Ethidium Homodimer III, and Hoechst 33342 (Apoptotic, Necrotic, and Healthy Cells Quantification Kit; Biotium, Fremont, Calif.) to assay cell health. Nuclei were counted in each punch to normalize respirometry data. Immunohistochemistry densitometry was measured using ImageJ software.
Human donor whole globe eye pairs were obtained by Iowa Lions Eye Bank (ILEB) and the anterior portion of the eyes were removed. For 14 days, one cornea was stored from a corneal pair treated with 1 mM ascorbate-2-phosphate, while the mate tissue was treated with diluent only as a control. Descemet membrane and endothelial cell punches were collected and mounted onto the bottom of a Seahorse assay plate (cells facing upward). Mitochondrial respiration was assayed by measuring oxygen consumption using the Seahorse XFe24 Extracellular Flux Analyzer (Agilent Technologies, Santa Clara, Calif.) over 120 minutes (9-minute intervals). Punches were labeled with a nuclear counterstain (DAPI) and nuclei were counted in each punch to normalize respirometry data. […]
Tissue preparation and extracellular flux assays for mitochondrial respiration were performed as described in Greiner et al. (2015). In brief, after pre-stripping the EDM, 3 mm diameter EDM punches were mounted in wells of a XF24 microplate (Agilent Technologies, Santa Clara, Calif.). After acclimation for one hour at 37° C. in non-buffered assay media, metabolic activity of the EDM samples was quantified using a commercial kit (XF Cell Mito Stress Test Kits; Agilent Technologies) on a Seahorse XFe24 extracellular flux analyzer (Agilent Technologies). Following extracellular flux analysis, tissues were labeled fluorescently using a 1:1000 Sytox Green nucleic acid stain in the microtiter plate (Life Technologies, Grand Island, N.Y.) and imaged on an Olympus IX-81 inverted microscope (Olympus America, Center Valley, Pa.) using a FITC filter. Cell counts were determined using Image J (https://imagej.nih.gov/ij/download.html) and used to compute the oxygen consumption rate per cell (OCR; pmole/min/cell). Raw OCR values were used to calculate several different key parameters of metabolic function per manufacturer's directions (Agilent Technologies), as in Aldrich et al. (2017). The parameters and calculations used in this study were the main outcome measures, including basal respiration, ATP-associated oxygen consumption, proton [H^+] leak, maximal respiration, spare respiratory capacity, non-mitochondrial respiration, and coupling efficiency as described in Schneider et al. and Goldstein et al. (2018).
Mitochondrial Respiration Assay: 3 mm punches of central and peripheral endothelium-Descemet membrane complex (EDM) were secured to the bottom of cell culture microplate wells or CECs were grown directly onto microplate.

Where [4] appears, read: MitoQ 0 to 10 μM (data not shown).
The mark [5] stands for this setting: MitoQ 0 to 10 μM, control vs 10 μM P<0.001, n=3.

Entries after “also recorded” stand apart in the source; their conditions may differ. Structures can show the parent of a compound that is named as a salt.

For the compound cyclodextrin [cyclodextrin alone], the “mitochondrial spare respiratory capacity” value in test [1] (uncomplexed coenzyme Q10 (100 μM) or cyclodextrin alone vs diluent control) was “reduces the mitochondrial spare respiratory capacity”.
For `CC(=O)N[C@@H](CS)C(=O)O` [NAC, N-Acetyl-L-cysteine], the “maximal respiration and spare respiratory capacity lowered by hyperglycemic growing conditions” value in test [2] (1.0 mM NAC) is recorded as “mitigates this effect”.
As for `COC1=C(OC)C(=O)C(CCCCCCCCCC[P+](c2ccccc2)(c2ccccc2)c2ccccc2)=C(C)C1=O` [MitoQ, mitoquinone mesylate], in test [1] (setting [4]), the basal respiration result is given as “dose dependent reductions”, the maximal respiration entry is “dose dependent reductions”, the non-mitochondrial respiration result was “not influenced” and the proton leak entry is on record as “not influenced”. Moreover, in test [1] (setting [5]), the “ATP linked oxygen consumption (ATP linked respiration)” value is “dose dependent decrease; also recorded: significantly different” and the spare respiratory capacity result is “dose dependent decrease; also recorded: significantly different”. The respiratory function entry in test [1] (escalating doses of MitoQ, 0 to 10 μM) is “dose dependent decrease in respiratory function; also recorded: decreased in respiratory function”.
Take `O=C(O)c1cc(C(=O)O)c2c(n1)C(=O)C(=O)c1cc(C(=O)O)[nH]c1-2` [PQQ, pyrroloquinoline quinone]: the “maximal respiration and spare respiratory capacity lowered by hyperglycemic growing conditions” value in test [2] (8.3 μM PQQ) is “mitigates this effect”.
ascorbate-2-phosphate: the “corneal endothelial cell mitochondrial respiration” value in test [3] is listed as “did not affect corneal endothelial cell mitochondrial respiration”. The “non-mitochondrial respiration, higher level than untreated control cells” value in test [3] (14 days storage, 5 paired corneas, p-value=0.053) is 21%.
